Results on 2 molecules are retold here after patent publication US12102633B2, “Spirolactone compounds” (Quixgen, Inc., priority 2017, dated 2024).

The subject of experiment [1] is Human sebocytes. Kind of experiment: Lipogenesis of human sebocytes. Format: cell-based. As to conditions: 96 hours, nile red, read-out: LG-Sebo IC50. Here is the method:
Human sebocytes (Celprogen) were grown in collagen-coated 96-well culture microplate (White/Clear bottom, Coming BioCoat) with growth media till 100% confluency. Culture media was changed to growth media plus 100 μM arachidonic acid (Sigma) and 10 μM rosiglitazone (Tocris) with compounds prepared in DMSO (1:1000 dilution in growth media). Cells were treated with compounds for 96 hours with media containing compounds changed after 48 hours. Upon completion of treatment, cells were washed with 200 μL Phosphate Buffered Saline (PBS) and then fixed by adding 100 μL 4% formaldehyde (Sigma) and incubated at room temperature for 1 hour. Cells were then washed 3 times with PBS. Microplate was stained with 100 μL nile red solution prepared in PBS (2 mg/mL, 1:400 dilution) by incubating at 37° C. for 1 hour and then washed 3 times with PBS. The fluorescence was read at Ex 492 nm and Em 595 nm (TECAN SpectrofluorPlus). Effect of compounds on lipogenesis in sebocytes was calculated by % of DMSO vehicle control.

Experiment [2] concerns Human sebocytes. The experiment can be described thus: Cellular levels of malonyl-CoA in human sebocytes. It counts as cell-based. As to conditions: 0.5 h, 30 min incubation, read-out: Malonyl-CoA in Sebo IC50. Here is the method: Shimadzu LC system was used for sample analysis consisting of system controller (Shimadzu CBM-20A), autosampler (Shimadzu SIL-20A), pump A and B (Shimadzu LC-20AD), column oven (Shimadzu CTO-20A), and analytical column (Phenomenex Gemini 5u C18 11A, 100×2 mm). LC was running at 200 μL/min in the binary gradient mode with mobile phase A (5 mM Ammonium Acetate and 5 mM DMBA in water (1,3-Dimethylbutylamine)) and B (methanol). The samples were analyzed on an AB Sciex QTrap4000 LC-MS/MS triple quadrupole mass spectrometer (Applied Biosystems). Malonyl-CoA and malonyl-13C-CoA were monitored in positive ion mode following MRM transitions at 854.2/347.1 and 855.1/246.1, respectively. The product and internal standard were coeluted to the mass spectrometer in 3 s with 50% H2O, 25% MeCN, 25% acetone, and 5 mM ammonium acetate. Ion chromatograms were integrated using the Analyst 1.5.2 software. Peak area ratios were compared against a standard curve and final cellular concentration of malonyl-CoA or production rate of malonyl-13C-CoA was calculated as pmoles/mg protein per minute.
Human sebocytes (Celprogen) were grown in growth media (DMEM with 4.5 g/L glucose, 0.584 g/L L-glutamine (Sigma), 100 units/mL of penicillin and 100 μg/mL of streptomycin (Gibco), 10% fetal bovine serum (Gibco)) at 37° C. in a humidified water jacketed incubator (Forma Scientific) supplemented with 5% CO2 till 100% confluency. Cells grown in 152 cm^2 cell culture dish (Corning) were trypsinized with 0.25% trypsin-EDTA (Gibco), centrifuged at 800 rpm for 10 min (Eppendorf) and resuspended in 4 mL growth media. To 1 μL serial diluted compounds in DMSO, 99 μL cells (around 0.5 million cells suspended in growth media) were added and mixed well followed by incubation in cell culture incubator for 30 min. Cells were then centrifuged at 800 rpm for 10 min and 70 μL 10% trichloroacetic acid was added to each well to lyse the cells and precipitate proteins. Cellular levels of malonyl-CoA were quantitated by LC-MS/MS.

Usually IC50 stands for the concentration that inhibits the measured activity by half. Regarding `COc1cc(C(=O)N2CCC3(CC2)Cc2ccc(C(C)C)cc2C(=O)O3)nc2c(OC)cccc12` [Example 2, 1′-(4,8-dimethoxyquinoline-2-carbonyl)-7-isopropylspiro[isochroman-3,4′-piperidin]-1-one], the IC50 in experiment [1] is 25 nM.
Regarding `COc1cc(C(=O)N2CCC3(CC2)Cc2ccc(Nc4ccnn4C)cc2C(=O)O3)nc2c(OC)cccc12` [Example 6, 1′-(4,8-dimethoxyquinoline-2-carbonyl)-7-((1-methyl-1H-pyrazol-5-yl)amino)spiro[isochroman-3,4′-piperidin]-1-one], in experiment [2], the 50% inhibitory concentration (IC50) came to 47.4 nM.
